Measurements: patent US20130252890A1, “6,7-DIHYDRO-5H-BENZO[7]ANNULENE DERIVATIVES, PROCESS FOR PREPARATION THEREOF, PHARMACEUTICAL PREPARATIONS COMPRISING THEM, AND THE USE THEREOF FOR PRODUCTION OF MEDICAMENTS” (BAYER INTELLECTUAL PROPERTY GMBH, priority 2010, published 2013)
Counter-ions that a name gives are not always drawn.

Assays:
uterus = experiment: Anti-uterus growth test in the adult rat; settings: sc, 72 h; ovariectomized adult rat, s.c. 3 days with 1.5 μg/kg/day 17β-estradiol; inhibition of uterus growth; value of 44 is a mean of two measurements; read-out: anti-oestrogenic activity in vivo in % at a dose of 0.3 mg/kg (rat)
Description: The uterus of oestrogen-substituted rats can be used as a test model for detecting a direct action of substances with anti-oestrogenic properties. The parameter of oestrogenic action is estradiol-induced uterus growth in rats, which is inhibited by simultaneous administration of a substance with anti-oestrogenic action. The experimental animals (n=5-6 animals/group) were ovariectomized before the start of the test, to rule out the influence of endogenous oestrogens. After a phase of 6 to 10 days, the test substances are administered s.c. on 3 consecutive days (d1-d3) in combination with a substitution dose of 1.5 μg/kg/day 17β-estradiol. 17β-estradiol alone serves as positive control, and the excipients serve as negative control. On day 4 (d4) the animals are killed, and the uteri and vaginae are removed and weighed. The organ weights are converted to mg/100 g body weight, then the mean value and the standard deviation are calculated for each dosage. The inhibition of uterus growth induced by 17β-estradiol is shown as percentage inhibition.

oestrogen receptor (ER) = molecular target: T1, oestrogen receptor (ER) (Homo sapiens, UniProt P03372); experiment: Anti-oestrogenic action in MVLN cells (inhibition of estradiol-induced luciferase); assay type: cell-based; settings: inhibition of estradiol-induced luciferase signal, value of Ex. 44 is a mean value, read-out: Antioestrogenic action in vitro: MVLN transactivation antagonism IC50
T1 construct: These MVLN cells express, along with the functional oestrogen receptor (ER), a reporter construct; endogenous in cells; host or cells: MVLN cells (MCF7 derivative carrying a luciferase reporter construct)
T1 sequence (P03372 1-595): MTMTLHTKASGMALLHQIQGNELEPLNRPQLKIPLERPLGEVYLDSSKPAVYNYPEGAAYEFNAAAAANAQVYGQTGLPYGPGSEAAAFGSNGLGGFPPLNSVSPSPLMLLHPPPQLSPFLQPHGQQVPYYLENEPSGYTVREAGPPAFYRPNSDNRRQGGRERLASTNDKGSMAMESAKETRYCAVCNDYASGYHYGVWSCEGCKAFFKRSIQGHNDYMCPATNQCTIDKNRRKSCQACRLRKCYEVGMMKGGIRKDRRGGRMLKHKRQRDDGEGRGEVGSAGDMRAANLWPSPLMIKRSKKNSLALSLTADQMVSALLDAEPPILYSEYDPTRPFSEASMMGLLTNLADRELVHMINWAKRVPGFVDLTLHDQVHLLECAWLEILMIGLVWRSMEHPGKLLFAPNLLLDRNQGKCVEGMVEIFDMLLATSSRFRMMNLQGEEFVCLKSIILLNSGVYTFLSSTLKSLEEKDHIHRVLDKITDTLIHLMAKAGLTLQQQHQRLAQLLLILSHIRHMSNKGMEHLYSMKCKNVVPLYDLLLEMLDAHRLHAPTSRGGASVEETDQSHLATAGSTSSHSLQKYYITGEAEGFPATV
Procedure, shortened: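 Inhibition of estradiol-driven luciferase expression was measured with compounds co-applied alongside oestrogen. Reporter system: MCF7-derived MVLN cells expressing endogenous functional ER and an ER-responsive luciferase construct.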

[1] = system: ovarian estradiol synthesis; experiment: Stimulation of ovarian oestrogen synthesis (HPG axis) in intact adult rats; assay type: in vivo, rat; settings: hormonally intact adult rats, daily for 10 days; quotient of peripheral estradiol values after and before treatment
Description: The clinical use both of pure anti-oestrogens and of various SERMs for the treatment of premenopausal women is limited by their property of stimulating the ovaries through activation of the hypothalamic-pituitary-gonadal axis (HPG axis), which leads to the increase in peripheral estradiol levels (Palomba, S., Orio, F., Jr., Morelli, M., Russo, T., Pellicano, M., Zupi, E., Lombardi, G., Nappi, C., Panici, P. L., and Zullo, F. (2002). Raloxifene administration in premenopausal women with uterine leiomyomas: a pilot study. J Clin Endocrinol Metab 87, 3603-3608). This stimulation of the HPG axis is associated with penetration of the blood-brain barrier and penetration of the brain. To investigate the ovary-stimulating properties of the claimed pharmacological compounds, hormonally intact adult rats were treated with the substances daily for a period of 10 days. The study end point is the quotient of peripheral estradiol values after and before treatment.

| IC50 (oestrogen receptor (ER)) | Stimulation of ovarian oestrogen synthesis: factor at a dose of 3 mg/kg rat [1] | Structure (SMILES) | inhibition in vivo at 0.3 mg/kg (uterus) |
| --- | --- | --- | --- |
| 24 nM | – | CN(CCCCCCC1=C(c2cc(F)cc(F)c2)CCCc2cc(O)ccc21)CCCS(=O)(=O)CCCC(F)(F)F [Example 7, 8-(3,5-Difluorophenyl)-9-[6-(methyl{3-[(4,4,4-trifluorobutyl)sulphonyl]propyl}amino)hexyl]-6,7-dihydro-5H-benzo[7]annulen-3-ol] | 23% |
| 35 nM | – | CC(C)(O)CN(CCCCCCC1=C(c2ccc(F)c(F)c2)CCCc2cc(O)ccc21)CCCS(=O)(=O)CCC(F)(F)F [Example 27, 8-(3,4-Difluorophenyl)-9-{6-[(2-hydroxy-2-methylpropyl){3-[(3,3,3-trifluoropropyl)sulphonyl]propyl}amino]hexyl}-6,7-dihydro-5H-benzo[7]annulen-3-ol] | 10% |
| 8 nM | 2.3 | CN(CCCCCCC1=C(c2ccc(F)cc2)CCCc2cc(O)ccc21)CCCS(=O)(=O)CCCCC(F)(F)F [Example 80, 8-(4-Fluorophenyl)-9-[6-(methyl{3-[(5,5,5-trifluoropentyl)sulphonyl]propyl}amino)hexyl]-6,7-dihydro-5H-benzo[7]annulen-3-ol] | 59% |
| 22 nM | – | CN(CCCCCCC1=C(c2ccc(F)c(F)c2)CCCc2cc(O)ccc21)CCCS(=O)(=O)CCCC(F)(F)F [Example 23, 8-(3,4-Difluorophenyl)-9-[6-(methyl{3-[(4,4,4-trifluorobutyl)sulphonyl]propyl}amino)hexyl]-6,7-dihydro-5H-benzo[7]annulen-3-ol] | 33% |
| 34 nM | – | CN(CCCCCCC1=C(c2ccc(F)cc2)CCCc2cc(O)ccc21)CCCS(=O)(=O)CCC(F)(F)C(F)(F)F [Example 116, 8-(4-fluorophenyl)-9-[6-(methyl{3-[(3,3,4,4,4-pentafluorobutyl)sulphonyl]propyl}amino)hexyl]-6,7-dihydro-5H-benzo[7]annulen-3-ol] | 15% |
| 20 nM | – | CN(CCCCCCC1=C(c2ccc(F)c(F)c2)CCCc2cc(O)ccc21)CCCCS(=O)(=O)CCCC(F)(F)F [Example 45, 8-(3,4-Difluorophenyl)-9-[6-(methyl{4-[(4,4,4-trifluorobutyl)sulphonyl]butyl}amino)hexyl]-6,7-dihydro-5H-benzo[7]annulen-3-ol] | 73% |
| 36 nM | – | CN(CCCCCCC1=C(c2cc(F)cc(F)c2)CCCc2cc(O)ccc21)CCCCS(=O)(=O)CCC(F)(F)F [Example 46, 8-(3,5-Difluorophenyl)-9-[6-(methyl{4-[(3,3,3-trifluoropropyl)sulphonyl]butyl}amino)hexyl]-6,7-dihydro-5H-benzo[7]annulen-3-ol] | 30% |
| 46 nM | – | CN(CCCCCCC1=C(c2ccc(F)c(F)c2)CCCc2cc(O)ccc21)CCCS(=O)(=O)CCCC(F)(F)C(F)(F)F [Example 17, 8-(3,4-Difluorophenyl)-9-[6-(methyl{3-[(4,4,5,5,5-pentafluoropentyl)sulphonyl]propyl}amino)hexyl]-6,7-dihydro-5H-benzo[7]annulen-3-ol] | – |
| 222 nM | – | CN(CCCCCCC1=C(c2ccc(F)c(F)c2)CCCc2cc(O)ccc21)CCCS(=O)(=O)CCC(F)(F)F [Example 22, 8-(3,4-Difluorophenyl)-9-[6-(methyl{3-[(3,3,3-trifluoropropyl)sulphonyl]propyl}amino)hexyl]-6,7-dihydro-5H-benzo[7]annulen-3-ol] | – |
| 62 nM | – | CN(CCCCCCC1=C(c2ccc(F)c(F)c2)CCCc2cc(O)ccc21)CCCS(=O)(=O)CCC(F)(F)C(F)(F)F [Example 19, 8-(3,4-Difluorophenyl)-9-[6-(methyl{3-[(3,3,4,4,4-pentafluorobutyl)sulphonyl]propyl}amino)hexyl]-6,7-dihydro-5H-benzo[7]annulen-3-ol] | – |

Continued, molecule first:

| Structure (SMILES) | IC50 (oestrogen receptor (ER)) | Stimulation of ovarian oestrogen synthesis: factor at a dose of 3 mg/kg rat [1] | inhibition in vivo at 0.3 mg/kg (uterus) |
| --- | --- | --- | --- |
| CN(CCCCCCC1=C(c2ccc(F)cc2)CCCc2cc(O)ccc21)CCCCS(=O)(=O)CCCC(F)(F)F [Example 48, 8-(4-Fluorophenyl)-9-[6-(methyl{4-[(4,4,4-trifluorobutyl)sulphonyl]butyl}amino)hexyl]-6,7-dihydro-5H-benzo[7]annulen-3-ol] | 17 nM | – | 79% |
| CN(CCCCCCC1=C(c2cccc(F)c2)CCCc2cc(O)ccc21)CCCCS(=O)(=O)CCCC(F)(F)C(F)(F)F [Example 124, 8-(3-fluorophenyl)-9-[6-(methyl{4-[(4,4,5,5,5-pentafluoropentyl)sulphonyl]butyl}amino)hexyl]-6,7-dihydro-5H-benzo[7]annulen-3-ol] | 13 nM | 2.0 | 67% |
| CN(CCCCCCC1=C(c2cccc(F)c2)CCCc2cc(O)ccc21)CCCS(=O)(=O)CCCC(F)(F)C(F)(F)F [Example 125, 8-(3-fluorophenyl)-9-[6-(methyl{3-[(4,4,5,5,5-pentafluoropentyl)sulphonyl]propyl}amino)hexyl]-6,7-dihydro-5H-benzo[7]annulen-3-ol] | 13 nM | – | 75% |
| O=C(c1ccc(OCCN2CCCCC2)cc1)c1c(-c2ccc(O)cc2)sc2cc(O)ccc12 [Raloxifene hydrochloride, Raloxifene, reference compound] | – | 3.1 | – |
| C[C@@H](O)CN(CCCCCCC1=C(c2ccc(F)cc2)CCCc2cc(O)ccc21)CCCCS(=O)(=O)CCCC(F)(F)F [Example 98] | 6 nM | – | – |
| COCCN(CCCCCCC1=C(c2ccc(F)c(F)c2)CCCc2cc(O)ccc21)CCCS(=O)(=O)CCCC(F)(F)C(F)(F)F [Example 31, 8-(3,4-Difluorophenyl)-9-{6-[(2-methoxyethyl){3-[(4,4,5,5,5-pentafluoropentyl)sulphonyl]propyl}amino]hexyl}-6,7-dihydro-5H-benzo[7]annulen-3-ol] | 16 nM | – | – |
| COCCCN(CCCCCCC1=C(c2cc(F)cc(F)c2)CCCc2cc(O)ccc21)CCCS(=O)(=O)CCCC(F)(F)C(F)(F)F [Example 16, 8-(3,5-Difluorophenyl)-9-{6-[(3-methoxypropyl){3-[(4,4,5,5,5-pentafluoropentyl)sulphonyl]propyl}amino]hexyl}-6,7-dihydro-5H-benzo[7]annulen-3-ol] | 27 nM | – | – |
| CN(CCCCCCC1=C(c2ccc(F)cc2)CCCc2cc(O)c(F)cc21)CCCCS(=O)(=O)CCCC(F)(F)F [Example 101, 2-Fluoro-8-(4-fluorophenyl)-9-[6-(methyl{4-[(4,4,4-trifluorobutyl)sulphonyl]butyl}amino)hexyl]-6,7-dihydro-5H-benzo[7]annulen-3-ol] | 6 nM | – | – |
| CN(CCCCCCC1=C(c2ccc(F)cc2)CCCc2c1ccc(O)c2F)CCCS(=O)(=O)CCC(F)(F)F [Example 37, 4-Fluoro-8-(4-fluorophenyl)-9-[6-(methyl{3-[(3,3,3-trifluoropropyl)sulphonyl]propyl}amino)hexyl]-6,7-dihydro-5H-benzo[7]annulen-3-ol] | 53 nM | – | – |
| CN(CCCCCCC1=C(c2ccc(F)cc2)CCCc2cc(O)c(F)cc21)CCCCS(=O)(=O)CCCC(F)(F)C(F)(F)F [Example 105, 2-Fluoro-8-(4-fluorophenyl)-9-[6-(methyl{4-[(4,4,5,5,5-pentafluoropentyl)sulphonyl]butyl}amino)hexyl]-6,7-dihydro-5H-benzo[7]annulen-3-ol] | 12 nM | – | – |
